Test results as given in patent US11912660B2, “S6K1 protein kinase inhibitors as cancer therapeutics” (Xavier University of Louisiana, priority 2020, dated 2024).
“And” between values parts separate entries of the source, which are not always exact repeats. Equal entries are not always repeated. Where two headings read alike, the source gives them in different places.

Assays:
Assay in all cases: SelectScreen kinase panel screening
Format in all cases: biochemical
PIK3CG (p110 gamma) = PIK3CG (p110 gamma) (Homo sapiens (Human), UniProt P48736)
From the text: (§1) The complete list of the kinases given in Table 1 and their details can be found on the ThermoFisher website for Biochemical Kinase assays (thermofisher.com/us/en/home/industrial/pharma-biopharma/drug-discovery-development/target-and-lead-identification-and-validation/kinasebiology.html).

SPHK1 = SPHK1 (Homo sapiens (Human), UniProt Q9NYA1); conditions: read-out: % Inhibition class
From the text: as §1

SRC = SRC (Homo sapiens (Human), UniProt P12931)
From the text: as §1

EPHB2 = EPHB2 (Homo sapiens (Human), UniProt P29323)
From the text: as §1

ROCK1 = ROCK1 (Homo sapiens (Human), UniProt Q13464)
From the text: as §1

EPHB4 = EPHB4 (Homo sapiens (Human), UniProt P54760)
From the text: as §1

ROS1 = ROS1 (Homo sapiens (Human), UniProt P08922)
From the text: as §1

FES (FPS) = FES (FPS) (Homo sapiens (Human), UniProt P07332)
From the text: as §1

LCK = LCK (Homo sapiens (Human), UniProt P06239)
From the text: as §1

LYN A = LYN A (Homo sapiens (Human), UniProt P07948)
From the text: as §1

GSG2 (Haspin) = GSG2 (Haspin) (Homo sapiens (Human), UniProt Q8TF76)
From the text: as §1

PTK2 (FAK) = PTK2 (FAK) (Homo sapiens (Human), UniProt Q05397)
From the text: as §1

KIT = KIT (Homo sapiens (Human), UniProt P10721)
From the text: as §1

BRAF = BRAF (Homo sapiens (Human), UniProt P15056)
From the text: as §1

YES1 = YES1 (Homo sapiens (Human), UniProt P07947)
From the text: as §1

PLK3 = PLK3 (Homo sapiens (Human), UniProt Q9H4B4)
From the text: as §1

CSF1R (FMS) = CSF1R (FMS) (Homo sapiens (Human), UniProt P07333)
From the text: as §1

CDK9/cyclin T1 = CDK9/cyclin T1 (Homo sapiens (Human), UniProt P50750)
From the text: as §1

MET (cMet) = MET (cMet) (Homo sapiens (Human), UniProt P08581)
From the text: as §1

RAF1 (cRAF) Y340D Y341D = RAF1 (cRAF) Y340D Y341D (Homo sapiens (Human), UniProt P04049, Y340D/Y341D)
From the text: as §1

FGFR1 = FGFR1 (Homo sapiens (Human), UniProt P11362)
From the text: as §1

PDGFRB (PDGFR beta) = PDGFRB (PDGFR beta) (Homo sapiens (Human), UniProt P09619)
From the text: as §1

AKT1 (PKB alpha) = AKT1 (PKB alpha) (Homo sapiens (Human), UniProt P31749)
From the text: as §1

AXL = AXL (Homo sapiens (Human), UniProt P30530)
From the text: as §1

JAK2 JH1 JH2 = JAK2 JH1 JH2 (Homo sapiens (Human), UniProt O60674)
From the text: as §1

MATK (HYL) = MATK (HYL) (Homo sapiens (Human), UniProt P42679)
From the text: as §1

PIM1 = PIM1 (Homo sapiens (Human), UniProt P11309)
From the text: as §1

FLT1 (VEGFR1) = FLT1 (VEGFR1) (Homo sapiens (Human), UniProt P17948)
From the text: as §1

CSNK1E (CK1 epsilon) = CSNK1E (CK1 epsilon) (Homo sapiens (Human), UniProt P49674)
From the text: as §1

PDK1 Direct = PDK1 Direct (Homo sapiens (Human), UniProt O15530)
From the text: as §1

KDR (VEGFR2) = KDR (VEGFR2) (Homo sapiens (Human), UniProt P35968)
From the text: as §1

Chain of GSG2 (Haspin) (Q8TF76 whole entry): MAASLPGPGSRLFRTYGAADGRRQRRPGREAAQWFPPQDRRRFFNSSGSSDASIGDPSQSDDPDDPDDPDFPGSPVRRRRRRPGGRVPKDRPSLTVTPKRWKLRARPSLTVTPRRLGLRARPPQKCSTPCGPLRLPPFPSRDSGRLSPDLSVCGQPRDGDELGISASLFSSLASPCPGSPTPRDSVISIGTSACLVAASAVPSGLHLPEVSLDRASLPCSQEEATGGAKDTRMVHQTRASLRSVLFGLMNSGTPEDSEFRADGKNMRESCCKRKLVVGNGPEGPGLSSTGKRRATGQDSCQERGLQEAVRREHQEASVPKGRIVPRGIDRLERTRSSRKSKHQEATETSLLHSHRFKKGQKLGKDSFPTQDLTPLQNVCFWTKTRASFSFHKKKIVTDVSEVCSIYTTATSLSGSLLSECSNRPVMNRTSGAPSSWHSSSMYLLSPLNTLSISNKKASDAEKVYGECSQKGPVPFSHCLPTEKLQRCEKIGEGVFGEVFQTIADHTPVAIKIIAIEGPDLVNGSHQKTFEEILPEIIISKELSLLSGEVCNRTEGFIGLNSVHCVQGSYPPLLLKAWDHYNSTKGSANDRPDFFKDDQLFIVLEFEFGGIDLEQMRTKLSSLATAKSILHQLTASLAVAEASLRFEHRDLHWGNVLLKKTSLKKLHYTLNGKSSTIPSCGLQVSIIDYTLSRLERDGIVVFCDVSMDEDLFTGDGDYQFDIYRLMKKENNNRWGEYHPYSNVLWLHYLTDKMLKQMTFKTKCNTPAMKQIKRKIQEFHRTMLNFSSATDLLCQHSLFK
Chain of CDK9/cyclin T1 (P50750 whole entry): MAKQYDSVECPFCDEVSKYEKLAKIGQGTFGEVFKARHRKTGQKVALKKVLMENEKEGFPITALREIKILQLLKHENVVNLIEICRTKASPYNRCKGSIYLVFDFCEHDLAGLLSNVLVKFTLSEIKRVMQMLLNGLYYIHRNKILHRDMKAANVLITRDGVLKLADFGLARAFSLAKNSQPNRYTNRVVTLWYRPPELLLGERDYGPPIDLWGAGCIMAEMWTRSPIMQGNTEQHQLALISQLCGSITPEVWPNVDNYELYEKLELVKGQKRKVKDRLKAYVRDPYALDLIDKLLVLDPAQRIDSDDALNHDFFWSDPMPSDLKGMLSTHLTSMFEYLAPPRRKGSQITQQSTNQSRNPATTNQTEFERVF
Chain of CDK9/cyclin T1 (O60563 whole entry partner): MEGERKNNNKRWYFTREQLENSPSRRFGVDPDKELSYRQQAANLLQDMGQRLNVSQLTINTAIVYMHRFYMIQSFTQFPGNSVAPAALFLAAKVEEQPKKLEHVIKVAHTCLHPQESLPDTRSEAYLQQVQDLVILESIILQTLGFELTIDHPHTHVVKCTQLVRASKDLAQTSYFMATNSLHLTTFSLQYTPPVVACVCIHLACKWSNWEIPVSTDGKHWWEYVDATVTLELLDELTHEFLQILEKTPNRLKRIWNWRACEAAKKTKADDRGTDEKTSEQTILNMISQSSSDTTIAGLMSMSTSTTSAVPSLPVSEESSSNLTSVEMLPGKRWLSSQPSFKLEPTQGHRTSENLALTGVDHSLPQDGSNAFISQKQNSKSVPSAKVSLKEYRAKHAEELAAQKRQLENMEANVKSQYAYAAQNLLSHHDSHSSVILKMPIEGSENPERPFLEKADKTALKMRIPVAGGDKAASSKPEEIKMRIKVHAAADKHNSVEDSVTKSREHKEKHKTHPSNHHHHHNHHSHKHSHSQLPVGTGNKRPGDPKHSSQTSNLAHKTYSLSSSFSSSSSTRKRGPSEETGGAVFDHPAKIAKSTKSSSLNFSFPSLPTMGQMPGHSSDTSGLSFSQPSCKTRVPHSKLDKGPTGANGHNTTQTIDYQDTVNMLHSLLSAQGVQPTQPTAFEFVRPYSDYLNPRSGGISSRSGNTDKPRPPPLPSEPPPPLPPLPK
Chain of PIK3CG (p110 gamma) (P48736 whole entry): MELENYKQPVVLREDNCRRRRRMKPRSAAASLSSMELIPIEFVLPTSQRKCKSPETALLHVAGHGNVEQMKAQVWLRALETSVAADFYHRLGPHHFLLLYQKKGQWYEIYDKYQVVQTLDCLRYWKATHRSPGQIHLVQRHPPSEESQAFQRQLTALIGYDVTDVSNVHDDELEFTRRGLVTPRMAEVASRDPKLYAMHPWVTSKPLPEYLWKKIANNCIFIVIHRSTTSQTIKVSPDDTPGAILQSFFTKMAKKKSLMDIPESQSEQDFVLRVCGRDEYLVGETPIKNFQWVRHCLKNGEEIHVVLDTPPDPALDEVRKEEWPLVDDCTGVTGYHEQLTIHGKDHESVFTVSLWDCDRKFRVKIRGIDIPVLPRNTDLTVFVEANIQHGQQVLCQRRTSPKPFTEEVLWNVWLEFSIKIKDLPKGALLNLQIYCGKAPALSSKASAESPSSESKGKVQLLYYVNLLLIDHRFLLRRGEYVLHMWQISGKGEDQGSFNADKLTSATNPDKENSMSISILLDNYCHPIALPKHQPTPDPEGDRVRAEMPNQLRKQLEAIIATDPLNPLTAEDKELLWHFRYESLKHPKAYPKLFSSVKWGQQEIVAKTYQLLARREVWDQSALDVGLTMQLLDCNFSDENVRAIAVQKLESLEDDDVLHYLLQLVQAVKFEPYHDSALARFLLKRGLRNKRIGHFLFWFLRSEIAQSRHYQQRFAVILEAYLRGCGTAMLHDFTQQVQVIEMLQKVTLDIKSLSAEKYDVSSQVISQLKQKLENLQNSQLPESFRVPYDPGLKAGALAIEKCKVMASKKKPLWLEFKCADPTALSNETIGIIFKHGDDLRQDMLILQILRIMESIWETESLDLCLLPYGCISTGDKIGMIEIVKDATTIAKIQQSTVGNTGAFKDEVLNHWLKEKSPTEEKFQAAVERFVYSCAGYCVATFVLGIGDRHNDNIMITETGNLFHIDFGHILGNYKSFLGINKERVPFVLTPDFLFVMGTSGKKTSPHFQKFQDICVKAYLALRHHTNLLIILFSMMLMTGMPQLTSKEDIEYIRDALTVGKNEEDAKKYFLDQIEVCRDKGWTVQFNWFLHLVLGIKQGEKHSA
Chain of AXL (P30530 26-894): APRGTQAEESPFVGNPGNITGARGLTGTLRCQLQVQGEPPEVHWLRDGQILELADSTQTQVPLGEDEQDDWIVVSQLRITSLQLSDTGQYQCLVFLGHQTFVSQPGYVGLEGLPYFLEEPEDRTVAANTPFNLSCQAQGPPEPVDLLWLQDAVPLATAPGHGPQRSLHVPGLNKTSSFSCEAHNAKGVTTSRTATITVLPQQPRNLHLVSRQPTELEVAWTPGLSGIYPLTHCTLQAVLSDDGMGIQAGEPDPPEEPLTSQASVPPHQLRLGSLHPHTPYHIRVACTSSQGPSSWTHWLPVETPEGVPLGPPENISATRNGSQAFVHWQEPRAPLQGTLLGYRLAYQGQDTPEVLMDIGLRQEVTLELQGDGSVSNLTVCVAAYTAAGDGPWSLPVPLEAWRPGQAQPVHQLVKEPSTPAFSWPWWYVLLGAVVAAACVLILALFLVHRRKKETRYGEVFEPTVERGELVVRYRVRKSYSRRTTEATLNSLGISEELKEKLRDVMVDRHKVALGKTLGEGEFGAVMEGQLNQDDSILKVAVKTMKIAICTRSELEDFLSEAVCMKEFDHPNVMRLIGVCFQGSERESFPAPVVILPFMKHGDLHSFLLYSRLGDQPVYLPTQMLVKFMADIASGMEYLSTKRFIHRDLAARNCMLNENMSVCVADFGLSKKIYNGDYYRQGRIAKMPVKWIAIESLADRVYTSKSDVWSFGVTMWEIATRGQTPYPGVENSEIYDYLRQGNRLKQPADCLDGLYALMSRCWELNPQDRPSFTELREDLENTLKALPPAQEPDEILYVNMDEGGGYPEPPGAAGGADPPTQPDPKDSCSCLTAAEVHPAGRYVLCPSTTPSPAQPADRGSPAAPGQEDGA
Chain of CSF1R (FMS) (P07333 20-972): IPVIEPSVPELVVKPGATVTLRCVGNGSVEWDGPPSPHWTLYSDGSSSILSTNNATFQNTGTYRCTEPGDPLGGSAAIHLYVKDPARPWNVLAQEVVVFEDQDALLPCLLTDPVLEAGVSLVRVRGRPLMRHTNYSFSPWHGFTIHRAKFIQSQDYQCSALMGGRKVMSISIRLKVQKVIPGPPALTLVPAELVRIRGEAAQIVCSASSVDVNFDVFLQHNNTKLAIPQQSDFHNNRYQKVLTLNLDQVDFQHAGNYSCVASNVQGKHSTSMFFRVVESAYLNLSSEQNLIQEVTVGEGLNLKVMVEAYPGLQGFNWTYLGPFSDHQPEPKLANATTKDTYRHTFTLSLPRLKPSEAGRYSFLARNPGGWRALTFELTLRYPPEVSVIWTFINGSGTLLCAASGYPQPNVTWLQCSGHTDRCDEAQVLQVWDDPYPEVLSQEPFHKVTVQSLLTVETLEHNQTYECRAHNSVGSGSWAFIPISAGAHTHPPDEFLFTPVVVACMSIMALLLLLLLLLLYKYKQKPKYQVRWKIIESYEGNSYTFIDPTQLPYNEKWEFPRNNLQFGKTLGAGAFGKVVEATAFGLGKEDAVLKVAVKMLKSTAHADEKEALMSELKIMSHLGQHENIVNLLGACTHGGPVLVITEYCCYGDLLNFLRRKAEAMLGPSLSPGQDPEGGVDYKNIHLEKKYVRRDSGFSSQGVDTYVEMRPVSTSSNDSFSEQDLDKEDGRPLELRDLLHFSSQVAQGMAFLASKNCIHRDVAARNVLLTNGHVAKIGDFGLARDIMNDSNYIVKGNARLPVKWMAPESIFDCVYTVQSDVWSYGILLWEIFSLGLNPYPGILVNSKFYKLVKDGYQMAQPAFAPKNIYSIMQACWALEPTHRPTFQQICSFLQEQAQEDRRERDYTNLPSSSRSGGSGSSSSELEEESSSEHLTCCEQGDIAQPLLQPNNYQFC

Question: Which “% Inhibition” value (PIK3CG (p110 gamma); 10 μM) does the source give for `Nc1cc(N)c2c(c1)C(=O)NC2=O` [RJ1, 4,6-diaminoisoindoline-1,3-dione] here?
Answer: Its value is 11%.

Question: And the inhibition at 10 µM (PIK3CG (p110 gamma); read-out: % Inhibition)?
Answer: The inhibition at 10 µM was 12%.

Question: And the inhibition at 10 µM (PIK3CG (p110 gamma); read-out: % Inhibition class)?
Answer: Its inhibition at 10 µM is < 40%.

Question: What about the inhibition at 10 µM (SPHK1) of the same molecule?
Answer: Its inhibition at 10 µM is < 40%.

Question: And the inhibition at 10 µM (SRC; read-out: % Inhibition)?
Answer: The inhibition at 10 µM was 9%.

Question: What about the inhibition at 10 µM (SRC; read-out: % Inhibition class) of the same molecule?
Answer: The inhibition at 10 µM was < 40%.

Question: What about the inhibition at 10 µM (EPHB2; read-out: % Inhibition) of the same molecule?
Answer: Its inhibition at 10 µM is 10%.

Question: What about the inhibition at 10 µM (EPHB2; read-out: % Inhibition class) of the same molecule?
Answer: The inhibition at 10 µM was < 40%.

Question: What about the inhibition at 10 µM (ROCK1; read-out: % Inhibition) of the same molecule?
Answer: The inhibition at 10 µM was 21%.

Question: And the inhibition at 10 µM (ROCK1; read-out: % Inhibition class)?
Answer: The inhibition at 10 µM was < 40%.

Question: And the inhibition at 10 µM (EPHB4; read-out: % Inhibition)?
Answer: The inhibition at 10 µM was 9%.

Question: What about the inhibition at 10 µM (EPHB4; read-out: % Inhibition class) of the same molecule?
Answer: Its inhibition at 10 µM is < 40%.

Question: What about the inhibition at 10 µM (ROS1; read-out: % Inhibition) of the same molecule?
Answer: Its inhibition at 10 µM is 3%.

Question: And the inhibition at 10 µM (ROS1; read-out: % Inhibition class)?
Answer: Its inhibition at 10 µM is < 40%.

Question: What about the inhibition at 10 µM (FES (FPS); read-out: % Inhibition) of the same molecule?
Answer: Its inhibition at 10 µM is 36%.

Question: What about the inhibition at 10 µM (FES (FPS); read-out: % Inhibition class) of the same molecule?
Answer: The inhibition at 10 µM was < 40%.

Question: And the inhibition at 10 µM (LCK; read-out: % Inhibition)?
Answer: The inhibition at 10 µM was 31%.

Question: What about the inhibition at 10 µM (LCK; read-out: % Inhibition class) of the same molecule?
Answer: Its inhibition at 10 µM is < 40%.

Question: What about the inhibition at 10 µM (LYN A; read-out: % Inhibition) of the same molecule?
Answer: Its inhibition at 10 µM is 12%.

Question: What about the inhibition at 10 µM (LYN A; read-out: % Inhibition class) of the same molecule?
Answer: Its inhibition at 10 µM is < 40%.

Question: And the “% Inhibition” value (GSG2 (Haspin); 10 μM)?
Answer: Its value is 34% and 65%.

Question: And the inhibition at 10 µM (GSG2 (Haspin); read-out: % Inhibition class)?
Answer: Its inhibition at 10 µM is < 40%.

Question: And the inhibition at 10 µM (PTK2 (FAK); read-out: % Inhibition)?
Answer: The inhibition at 10 µM was 26%.

Question: And the inhibition at 10 µM (PTK2 (FAK); read-out: % Inhibition class)?
Answer: Its inhibition at 10 µM is < 40%.

Question: And the inhibition at 10 µM (KIT; read-out: % Inhibition)?
Answer: Its inhibition at 10 µM is 7%.

Question: What about the inhibition at 10 µM (KIT; read-out: % Inhibition class) of the same molecule?
Answer: The inhibition at 10 µM was < 40%.

Question: And the inhibition at 10 µM (BRAF; read-out: % Inhibition)?
Answer: The inhibition at 10 µM was 19%.

Question: What about the inhibition at 10 µM (BRAF; read-out: % Inhibition class) of the same molecule?
Answer: The inhibition at 10 µM was < 40%.

Question: What about the inhibition at 10 µM (YES1; read-out: % Inhibition) of the same molecule?
Answer: The inhibition at 10 µM was 24%.

Question: What about the inhibition at 10 µM (YES1; read-out: % Inhibition class) of the same molecule?
Answer: The inhibition at 10 µM was < 40%.

Question: And the inhibition at 10 µM (PLK3; read-out: % Inhibition)?
Answer: The inhibition at 10 µM was 77%.

Question: What about the inhibition at 10 µM (PLK3; read-out: % Inhibition class) of the same molecule?
Answer: Its inhibition at 10 µM is 40 to 80%.

Question: And the inhibition at 10 µM (CSF1R (FMS); read-out: % Inhibition)?
Answer: Its inhibition at 10 µM is 26%.

Question: And the inhibition at 10 µM (CSF1R (FMS); read-out: % Inhibition class)?
Answer: Its inhibition at 10 µM is < 40%.

Question: What about the “% Inhibition” value (CDK9/cyclin T1; 10 μM) of the same molecule?
Answer: The value was 16%.

Question: What about the inhibition at 10 µM (CDK9/cyclin T1; read-out: % Inhibition) of the same molecule?
Answer: Its inhibition at 10 µM is 10%.

Question: What about the inhibition at 10 µM (CDK9/cyclin T1; read-out: % Inhibition class) of the same molecule?
Answer: Its inhibition at 10 µM is < 40%.

Question: What about the inhibition at 10 µM (MET (cMet); read-out: % Inhibition) of the same molecule?
Answer: Its inhibition at 10 µM is -4%.

Question: And the inhibition at 10 µM (MET (cMet); read-out: % Inhibition class)?
Answer: Its inhibition at 10 µM is < 40%.

Question: And the inhibition at 10 µM (RAF1 (cRAF) Y340D Y341D; read-out: % Inhibition)?
Answer: Its inhibition at 10 µM is 6%.

Question: What about the inhibition at 10 µM (RAF1 (cRAF) Y340D Y341D; read-out: % Inhibition class) of the same molecule?
Answer: The inhibition at 10 µM was < 40%.

Question: What about the inhibition at 10 µM (FGFR1; read-out: % Inhibition) of the same molecule?
Answer: Its inhibition at 10 µM is 51%.

Question: What about the inhibition at 10 µM (FGFR1; read-out: % Inhibition class) of the same molecule?
Answer: The inhibition at 10 µM was 40 to 80%.

Question: And the inhibition at 10 µM (PDGFRB (PDGFR beta); read-out: % Inhibition)?
Answer: Its inhibition at 10 µM is 5%.

Question: What about the inhibition at 10 µM (PDGFRB (PDGFR beta); read-out: % Inhibition class) of the same molecule?
Answer: Its inhibition at 10 µM is < 40%.

Question: What about the inhibition at 10 µM (AKT1 (PKB alpha); read-out: % Inhibition) of the same molecule?
Answer: Its inhibition at 10 µM is 11%.

Question: And the inhibition at 10 µM (AKT1 (PKB alpha); read-out: % Inhibition class)?
Answer: Its inhibition at 10 µM is < 40%.

Question: And the inhibition at 10 µM (AXL; read-out: % Inhibition)?
Answer: The inhibition at 10 µM was 10%.

Question: What about the inhibition at 10 µM (AXL; read-out: % Inhibition class) of the same molecule?
Answer: The inhibition at 10 µM was < 40%.

Question: And the inhibition at 10 µM (JAK2 JH1 JH2; read-out: % Inhibition)?
Answer: The inhibition at 10 µM was 15%.

Question: And the inhibition at 10 µM (JAK2 JH1 JH2; read-out: % Inhibition class)?
Answer: The inhibition at 10 µM was < 40%.

Question: What about the inhibition at 10 µM (MATK (HYL); read-out: % Inhibition) of the same molecule?
Answer: Its inhibition at 10 µM is -5%.

Question: And the inhibition at 10 µM (MATK (HYL); read-out: % Inhibition class)?
Answer: The inhibition at 10 µM was < 40%.

Question: What about the inhibition at 10 µM (PIM1; read-out: % Inhibition) of the same molecule?
Answer: The inhibition at 10 µM was 35%.

Question: What about the inhibition at 10 µM (PIM1; read-out: % Inhibition class) of the same molecule?
Answer: The inhibition at 10 µM was < 40%.

Question: And the inhibition at 10 µM (FLT1 (VEGFR1); read-out: % Inhibition)?
Answer: The inhibition at 10 µM was 18%.

Question: What about the inhibition at 10 µM (FLT1 (VEGFR1); read-out: % Inhibition class) of the same molecule?
Answer: Its inhibition at 10 µM is < 40%.

Question: And the inhibition at 10 µM (CSNK1E (CK1 epsilon); read-out: % Inhibition)?
Answer: The inhibition at 10 µM was 33%.

Question: What about the inhibition at 10 µM (CSNK1E (CK1 epsilon); read-out: % Inhibition class) of the same molecule?
Answer: Its inhibition at 10 µM is < 40%.

Question: What about the inhibition at 10 µM (PDK1 Direct; read-out: % Inhibition) of the same molecule?
Answer: The inhibition at 10 µM was 33%.

Question: And the inhibition at 10 µM (PDK1 Direct; read-out: % Inhibition class)?
Answer: The inhibition at 10 µM was < 40%.

Question: And the inhibition at 10 µM (KDR (VEGFR2); read-out: % Inhibition)?
Answer: Its inhibition at 10 µM is 56%.

Question: And the inhibition at 10 µM (KDR (VEGFR2); read-out: % Inhibition class)?
Answer: The inhibition at 10 µM was 40 to 80%.
